One test concerns PCaSC. As to conditions: cited from earlier work.
Test [1] deals with metastatic, hormone-sensitive PCa. As to conditions: cited from earlier work.
In a further test the test system is advanced prostate cancer. Particulars: patients with advanced prostate cancer; cited from earlier work.
The test system of a further test is hormone-refractory PCa. Particulars: docetaxel added at end of ADT; cited from earlier work.
In another test the test system is PCa. Particulars: cited from earlier work.
For test [2], the system named is metastatic castration resistant prostate cancer (mCRPC). As to conditions: cited from earlier work.
Another test deals with castration-resistant PCa. Description: Clinical trial of second-line intermittent AA therapy (NCT02415621). Type of test: in vivo, human. From the text:
Prior theoretical, pre-clinical, and clinical studies have questioned the utilization of MTD treatment in non-curative settings. That is, continuous MTD treatment fails to consider the evolutionary dynamics of treatment presponse, where competition, adaptation and selection between treatment sensitive and resistant cells contribute to therapy failure. In fact, this strategy, by maximally selecting for resistant phenotypes and eliminating other competing populations, may actually accelerate the emergence of resistant populations—a well-studied evolutionary phenomenon termed “competitive release.” In part to address this issue, prior trials have used an intermittent on- and off-ADT (IADT) to reduce toxicity and delay time to progression (TTP). […]
Survival benefits have not been confirmed clinically, which can be due to the conservative trial designs of long on-treatment cycles (7-8 months) and short off-cycles. […] PSA values can be monitored every four weeks as done in the clinic. […] For Patient 36, relative PSA values of 50% or 90% of pre-treatment PSA levels as triggers to pause IADT and pre-treatment PSA levels to resume IADT yield longer TTP than the static triggers (PSA monitored every 4 weeks, IADT is paused if PSA<4 ng/mL for consecutive 36 weeks, and IADT resumes if PSA>10 ng/mL). […]

[3] abbreviates: docetaxel plus ADT, added at beginning of hormone therapy.
[4] abbreviates: abiraterone plus gonadotropin-releasing hormone analog, AA-302 trial.

Structures are written as SMILES. “And” between values parts separate entries of the source, which are not always exact repeats. Equal values may be shown once. Read-outs that look alike come from different tables or passages of the source.

In the case of `CC(=O)O[C@@]12CO[C@@H]1C[C@H](O)[C@@]1(C)C(=O)[C@H](O)C3=C(C)[C@@H](OC(=O)[C@H](O)[C@@H](NC(=O)OC(C)(C)C)c4ccccc4)C[C@@](O)([C@@H](OC(=O)c4ccccc4)[C@H]21)C3(C)C` [docetaxel], in the test on PCaSC, the “PCaSC docetaxel sensitivity as share of PCaC sensitivity” value is given as “about 25%”. The survival benefit result in test [1] (CHAARTED trial, LVD patients) is “no statistically significant survival benefit”. The overall survival benefit entry in test [1] (CHAARTED trial, patients with HVD) is listed as “statistically significant overall survival benefit”. Moreover, the “increase in overall survival” value in test [1] (GETUG-AFU15, high volume disease (HVD), DOC with continuous ADT, non-significant) is listed as 20%. For the same compound, the survival benefit entry in test [1] (GETUG-AFU15, low volume disease (LVD)) was “no survival benefit”. Moreover, the overall survival benefit entry in test [1] (STAMPEDE trial, median follow-up of 43 months) was “more than 12 months”. Besides, in the test with advanced prostate cancer, the Total tumor regression rate (δS+δC), median was 0.015 day⁻¹ and the Total tumor regression rate (δS+δC), range was 0.006 to 0.032 day⁻¹. Besides, in the test on hormone-refractory PCa, the increase in survival is reported as 2.4 months and the survival was 18.9 months. Further, in the test on PCa (docetaxel added at beginning of long-term hormone therapy), the “increase in overall survival time compared to ADT alone” value is recorded as 10-13 months. In the test with PCa (setting [3]), the TTP is 20.2 months; the overall survival time was 81 months and 57.6 months.
With `CC(=O)O[C@H]1CC[C@@]2(C)C(=CC[C@@H]3[C@@H]2CC[C@]2(C)C(c4cccnc4)=CC[C@@H]32)C1` [abiraterone acetate], the PSA response rate in test [2] (setting [4]) is reported as 62%. In addition, the “median time to progression” value in test [2] (setting [4]) is given as 11.1 months. Moreover, in test [2] (second-line hormone therapy), the “overall survival compared to prednisone or placebo” value is on record as “prolong overall survival”. The “median TTP” value was 13 months in the test with castration-resistant PCa (continuous MTD AA) and “at least 33 months” in the test on castration-resistant PCa (intermittent AA therapy, median not reached).
